Structures can show the parent of a compound that is named as a salt.
Tests used:
B-Raf = B-Raf (Homo sapiens, UniProt P15056); experiment: B-Raf Accelerated MEK ATPase assay (BRAMA); type: biochemical; settings: BRAMA enzyme assay, class by pIC50; for IC50: read-out: B-Raf Activity
Method: Compounds of the present invention were tested for B-Raf […] inhibitory activity in a B-Raf Accelerated MEK ATPase assay (BRAMA). The BRAMA assay is a high sensitivity assay which measures an intrinsic MEK-mediated ATP hydrolysis uncoupled from downstream ERK phosphorylation by coupling the formation of ADP to NADH oxidation through the enzymes pyruvate kinase and lactate dehydrogenase. When ADP production is initiated by addition of catalytic amounts of an activated RAF enzyme and non-phosphorylated MEK, one observes robust ADP production concomitant with RAF-mediated phosphorylation of MEK. Specific details of the assay are disclosed in: C. Rominger, M. Schaber, E. May. Assay for B-Raf Activity Based on Intrinsic MEK ATPase Activity.

A375P tumor cells = experiment: Cell growth inhibition assay (CellTiter-Glo), A375P; settings: Homo sapiens, 72 h, read-out: Activity in A375P Tumor Cells;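 also: total ATP luminescence used as proxy for cell number, serial threefold compound dilutions at 0.2% DMSO, growth inhibition expressed versus DMSO vehicle-treated wells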
HT-29 tumor cells = experiment: Cell growth inhibition assay (CellTiter-Glo), HT-29; settings: Homo sapiens, HT-29, 72 h, read-out: Activity in HT-29 Tumor Cells;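 also: ATP content read by luminescence as proxy for cell number, growth inhibition versus DMSO vehicle wells, 0.2% DMSO final, nine serial threefold compound dilutions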
Method: (§1) Cell Growth Inhibition Assays Human colon tumor cells (Colo205) were cultured in RPMI (Mediatech 50-020-PB) containing 10% FBS and 1% penicillin-streptomycin. […] Human melanoma cancer cells (A375-F11S) were cultured in RPMI (Mediatech 50-020-PB) containing 10% FBS, 1% sodium pyruvate, and 1% penicillin-streptomycin. Human colon cancer cells (HT-29) were cultured in high glucose DMEM (Mediatech 50-013-PB) containing 10% FBS and 1% penicillin-streptomycin. Human melanoma cancer cells (SK-MEL-3) were cultured in McCoy's 5A (50-025-PB) containing 15% FBS, and 1% penicillin-streptomycin. All cell lines were maintained at 37° C. in a humidified 5% CO2, 95% air incubator.
(§2) The next day, compounds were diluted as follows: For 96-well assays, 13.5 μl of compound in DMSO were diluted using nine (9) serial 1:3 dilutions of 4.5 μl in 9 μl of DMSO. Medium (270 μl/well of RPMI with 10% FBS and 1% penicillin-streptomycin) was added to the plates. Aliquots (7 μl) were added to cells in the final assay giving a final DMSO concentration of 0.2%. For 384-well assays, 15 μl of compound in DMSO were diluted using nine (9) serial 1:3 dilutions of 5 μl in 10 μl of DMSO, followed by a further dilution of 5 μl of compound with 95 μl of medium, of which 2 μl are added to cells in the final assay giving a final DMSO concentration of 0.2%. Cells were incubated at 37° C., 5% CO2 for 3 days.
(§3) Total ATP was measured (as a surrogate estimate of cell number) using CellTiter-Glo® (Promega G7571) reagent. Briefly, plates were removed from the incubator and allowed to equilibrate to room temperature for 30 minutes. CellTiter-Glo® (25 μl or 55 μl for 384-well or 96-well assays, respectively) reagent was added to each well and plates were shaken on an orbital plate shaker for 2 minutes. Plates were incubated without shaking for a further 30 minutes and read on an LJL Analyst GT reader in luminometer mode with an integration time of 0.5 seconds per well. Percent inhibition of cell growth was calculated relative to DMSO vehicle-treated control wells.

Colo205 tumor cells = experiment: Cell growth inhibition assay (CellTiter-Glo), Colo205; settings: Homo sapiens, COLO 205, 72 h, read-out: Activity in Colo205 Tumor Cells;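 also: growth measured via total ATP luminescence (CellTiter-Glo) as a proxy for cell number, inhibition expressed against DMSO-treated control wells, 3-day exposure at 0.2% final DMSO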
SK-MEL-3 tumor cells = experiment: Cell growth inhibition assay (CellTiter-Glo), SK-MEL-3; settings: Homo sapiens, SK-MEL3, 72 h, read-out: Activity in SK-MEL-3 Tumor Cells;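 also: human melanoma cells grown with compound for 3 days in 0.2% DMSO, total ATP read by luminescence as proxy for cell number, growth inhibition versus DMSO-treated wells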
Method: as §1, §2, §3

SK-MEL-28 tumor cells = experiment: Cell growth inhibition assay (CellTiter-Glo), SK-MEL-28; settings: Homo sapiens, SK-MEL-28, 72 h, read-out: Activity in SK-MEL-28 Tumor Cells;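 also: luminescent total ATP as a proxy for cell number, threefold serial dilutions at 0.2% DMSO, percent growth inhibition versus DMSO vehicle control wells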

Chain of B-Raf (P15056 whole entry): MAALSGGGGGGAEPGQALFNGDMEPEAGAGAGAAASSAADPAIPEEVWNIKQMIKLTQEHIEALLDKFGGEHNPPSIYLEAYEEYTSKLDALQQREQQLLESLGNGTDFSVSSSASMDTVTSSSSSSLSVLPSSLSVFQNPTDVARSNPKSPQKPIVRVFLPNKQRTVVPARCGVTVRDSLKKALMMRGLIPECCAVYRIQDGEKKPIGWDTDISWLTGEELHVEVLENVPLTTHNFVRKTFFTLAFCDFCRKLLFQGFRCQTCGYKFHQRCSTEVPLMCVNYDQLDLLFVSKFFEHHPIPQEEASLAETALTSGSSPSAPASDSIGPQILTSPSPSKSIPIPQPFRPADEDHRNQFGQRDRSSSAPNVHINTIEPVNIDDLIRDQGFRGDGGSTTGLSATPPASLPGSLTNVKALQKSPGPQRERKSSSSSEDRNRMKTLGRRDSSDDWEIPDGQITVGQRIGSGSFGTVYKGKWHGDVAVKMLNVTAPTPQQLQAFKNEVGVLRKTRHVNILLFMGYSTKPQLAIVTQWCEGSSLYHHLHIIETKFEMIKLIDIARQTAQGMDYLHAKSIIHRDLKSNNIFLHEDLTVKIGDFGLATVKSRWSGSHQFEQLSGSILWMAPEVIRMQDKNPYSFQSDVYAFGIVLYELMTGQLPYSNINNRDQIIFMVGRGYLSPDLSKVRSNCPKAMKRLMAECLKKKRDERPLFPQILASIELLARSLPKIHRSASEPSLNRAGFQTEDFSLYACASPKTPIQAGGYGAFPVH

| Structure (SMILES) | IC50 (B-Raf) [µM] | IC50 (A375P tumor cells) [µM] | IC50 (HT-29 tumor cells) [µM] | IC50 (Colo205 tumor cells) [µM] | IC50 (SK-MEL-3 tumor cells) [µM] | IC50 (SK-MEL-28 tumor cells) [µM] | B-Raf Activity (B-Raf) |
| --- | --- | --- | --- | --- | --- | --- | --- |
| CCNc1nc(-c2cc(OC)cc(OC)c2)c(-c2ccnc(Nc3ccc(N4CCN(CCS(C)(=O)=O)CC4)nc3)n2)s1 [Example 1, 4-[4-[3,5-Bis(methyloxy)phenyl]-2-(ethylamino)-1,3-thiazol-5-yl]-N-(6-{4-[2-(methylsulfonyl)ethyl]-1-piperazinyl}-3-pyridinyl)-2-pyrimidinamine] | < 0.1 | < 0.5 | < 0.5 | < 0.5 | < 0.5 | 0.5 to 5 | – |
| CCNc1nc(-c2cc(OC)cc(OC)c2)c(-c2ccnc(Nc3ccc(N4CCN(S(C)(=O)=O)CC4)nc3)n2)s1 [Example 2, 4-[4-[3,5-bis(methyloxy)phenyl]-2-(ethylamino)-1,3-thiazol-5-yl]-N-{6-[4-(methylsulfonyl)-1-piperazinyl]-3-pyridinyl}-2-pyrimidinamine] | < 0.1 | < 0.5 | < 0.5 | < 0.5 | < 0.5 | < 0.5 | – |
| CCNc1nc(-c2cc(OC)cc(OC)c2)c(-c2ccnc(Nc3ccc(O[C@H]4CCN(CCS(C)(=O)=O)C4)nc3)n2)s1 [Example 3, 4-[4-[3,5-Bis(methyloxy)phenyl]-2-(ethylamino)-1,3-thiazol-5-yl]-N-[6-({(3S)-1-[2-(methylsulfonyl)ethyl]-3-pyrrolidinyl}oxy)-3-pyridinyl]-2-pyrimidinamine] | < 0.1 | < 0.5 | < 0.5 | < 0.5 | < 0.5 | < 0.5 | – |
| CCNc1nc(-c2cc(OC)cc(OC)c2)c(-c2ccnc(Nc3ccc(N4CCN(CC)CC4)cc3)n2)s1 [Example 5, 4-[4-[3,5-Bis(methyloxy)phenyl]-2-(ethylamino)-1,3-thiazol-5-yl]-N-[4-(4-ethyl-1-piperazinyl)phenyl]-2-pyrimidinamine trifluoroacetate] | < 0.1 | 0.5 to 5 | < 0.5 | 0.5 to 5 | < 0.5 | 0.5 to 5 | – |
| CCNc1nc(-c2cc(OC)cc(OC)c2)c(-c2ccnc(Nc3ccc(N4CCN(CCS(C)(=O)=O)CC4)c(F)c3)n2)s1 [Example 6, 4-[4-[3,5-Bis(methyloxy)phenyl]-2-(ethylamino)-1,3-thiazol-5-yl]-N-(3-fluoro-4-{4-[2-(methylsulfonyl)ethyl]-1-piperazinyl}phenyl)-2-pyrimidinamine trifluoroacetate] | < 0.1 | < 0.5 | < 0.5 | < 0.5 | < 0.5 | 0.5 to 5 | – |
| CCNc1nc(-c2cc(OC)cc(OC)c2)c(-c2ccnc(Nc3ccc(N4CCN(CCF)CC4)c(F)c3)n2)s1 [Example 8, 4-[4-[3,5-Bis(methyloxy)phenyl]-2-(ethylamino)-1,3-thiazol-5-yl]-N-{3-fluoro-4-[4-(2-fluoroethyl)-1-piperazinyl]phenyl}-2-pyrimidinamine] | < 0.1 | 0.5 to 5 | < 0.5 | < 0.5 | < 0.5 | < 0.5 | – |
| COc1cccc(-c2nc(CF)sc2-c2ccnc(Nc3ccc(OCCN4CCCC4)c(F)c3)n2)c1 [Example 73, 4-{2-(Fluoromethyl)-4-[3-(methyloxy)phenyl]-1,3-thiazol-5-yl}-N-(3-fluoro-4-{[2-(1-pyrrolidinyl)ethyl]oxy}phenyl)-2-pyrimidinamine] | < 0.1 | – | – | 0.5 to 5 | – | 0.5 to 5 | – |
| COc1cc(OC)cc(-c2nc(N)oc2-c2ccnc(Nc3ccc(OC4CCN(CCS(C)(=O)=O)CC4)c(F)c3)n2)c1 [Example 75, 4-{2-Amino-4-[3,5-bis(methyloxy)phenyl]-1,3-oxazol-5-yl}-N-[3-fluoro-4-({1-[2-(methylsulfonyl)ethyl]-4-piperidinyl}oxy)phenyl]-2-pyrimidinamine] | < 0.1 | – | – | 0.5 to 5 | – | 0.5 to 5 | – |
| COc1cccc(-c2nc(C(C)C)sc2-c2ccnc(Nc3ccc(NCCN4CCCC4)cc3)n2)c1 [Example 76, N-(4-{2-(1-Methylethyl)-4-[3-(methyloxy)phenyl]-1,3-thiazol-5-yl}-2-pyrimidinyl)-N′-[2-(1-pyrrolidinyl)ethyl]-1,4-benzenediamine] | < 0.1 | – | – | 0.5 to 5 | – | 0.5 to 5 | – |
| CCNc1nc(-c2ccnc(O)c2)c(-c2ccnc(Nc3ccc(N4CCS(=O)(=O)CC4)nc3)n2)s1 [Example 79] | < 0.1 | – | – | > 5 | – | > 5 | – |
| CCc1nc(-c2cc(C)cc(OC)c2)c(-c2ccnc(Nc3ccc(N4CCN5CCOC[C@H]5C4)nc3)n2)s1 [Example 80] | < 0.1 | – | – | > 5 | – | > 5 | – |
| COc1cc(OC)cc(-c2nc(C)oc2-c2ccnc(Nc3ccc(OC4CCN(CCS(C)(=O)=O)CC4)c(F)c3)n2)c1 [Example 83] | 0.1 to 1 | – | – | 0.5 to 5 | – | > 5 | – |
| COc1cc(OC)cc(-c2nc(C)oc2-c2ccnc(Nc3ccc(N4CCN(C)CC4)c(F)c3)n2)c1 [Example 84] | < 0.1 | – | – | 0.5 to 5 | – | 0.5 to 5 | – |
| CCc1nc(-c2cc(OC)cc(OC)c2)c(-c2ccnc(Nc3ccc(N4CCN(C)CC4)c(F)c3)n2)o1 [Example 85] | < 0.1 | – | – | 0.5 to 5 | – | 0.5 to 5 | – |
| COc1cc(OC)cc(-c2nc(N)oc2-c2ccnc(Nc3ccc(N4CCN(C)CC4)c(F)c3)n2)c1 [Example 86] | < 0.1 | – | – | 0.5 to 5 | – | 0.5 to 5 | – |
| CCNc1nc(-c2cc(OC)cc(OC)c2)c(-c2ccnc(Nc3ccc(OC4CCN(CCF)CC4)c(C)c3)n2)o1 [Example 88] | < 0.1 | – | – | 0.5 to 5 | – | 0.5 to 5 | – |

| Structure (SMILES) | IC50 (B-Raf) [µM] | IC50 (A375P tumor cells) [µM] | IC50 (HT-29 tumor cells) [µM] | IC50 (Colo205 tumor cells) [µM] | IC50 (SK-MEL-3 tumor cells) [µM] | IC50 (SK-MEL-28 tumor cells) [µM] | B-Raf Activity (B-Raf) |
| --- | --- | --- | --- | --- | --- | --- | --- |
| CCNc1nc(-c2cc(OC)cc(OC)c2)c(-c2ccnc(Nc3cc(F)c(OC4CCN(CCF)CC4)c(F)c3)n2)o1 [Example 93] | < 0.1 | – | – | 0.5 to 5 | – | 0.5 to 5 | – |
| CCNc1nc(-c2cc(O)ccn2)c(-c2ccnc(Nc3ccc(OCCN4CCCC4)c(Cl)c3)n2)s1 [Example 97] | 0.1 to 1 | – | – | > 5 | – | > 5 | – |
| CCNc1nc(-c2cc(C)cc(OC)c2)c(-c2ccnc(Nc3ccc(N4CCN(C(C)=O)CC4)nc3)n2)o1 [Example 100] | < 0.1 | – | – | < 0.5 | – | < 0.5 | – |
| CCNc1nc(-c2cc(C)cc(OC)c2)c(-c2ccnc(Nc3ccc(N4CCOCC4)c(F)c3)n2)o1 [Example 101] | < 0.1 | – | – | < 0.5 | – | 0.5 to 5 | – |
| Nc1cccc(-c2nc(N3CCCC3)sc2-c2ccnc(Nc3ccc(NCCN4CCCC4)c(F)c3)n2)c1 [Example 109] | < 0.1 | – | – | 0.5 to 5 | – | 0.5 to 5 | – |
| CCNc1nc(-c2ccnc(O)c2)c(-c2ccnc(Nc3ccc(NCCN4CCCC4)c(Cl)c3)n2)s1 [Example 110] | < 0.1 | – | – | 0.5 to 5 | – | 0.5 to 5 | – |
| CCNc1nc(-c2ccnc(OC)c2)c(-c2ccnc(Nc3ccc(N4CCN(C)CC4)c(F)c3)n2)s1 [Example 111] | < 0.1 | – | – | 0.5 to 5 | – | > 5 | – |
| CCNc1nc(-c2cc(C)cc(OC)c2)c(-c2ccnc(Nc3ccc(N4CCN5CCCCC5C4)c(F)c3)n2)s1 (stereo not shown) [Example 114] | < 0.1 | – | – | 0.5 to 5 | – | 0.5 to 5 | – |
| CCNc1nc(-c2cc(OC)cc(OC)c2)c(-c2ccnc(Nc3ccc(N4CCN(C(=O)OCC)CC4)nc3)n2)o1 [Example 121] | < 0.1 | – | – | > 5 | – | > 5 | – |
| CCNc1nc(-c2cc(OC)cc(OC)c2)c(-c2ccnc(Nc3ccc4c(c3)N(C(C)=O)CC4)n2)o1 [Example 122] | < 0.1 | – | – | 0.5 to 5 | – | 0.5 to 5 | – |
| CCNc1nc(-c2cc(OC)cc(OC)c2)c(-c2ccnc(Nc3ccc(CCN4CCOCC4)cc3)n2)o1 [Example 123] | < 0.1 | – | – | 0.5 to 5 | – | > 5 | – |
| CCNc1nc(-c2cc(C)cc(OC)c2)c(-c2ccnc(Nc3ccc(OC4CCN(CCF)CC4)c(C)c3)n2)o1 [Example 126] | < 0.1 | – | – | 0.5 to 5 | – | 0.5 to 5 | – |
| CCNc1nc(-c2cc(C)cc(OC)c2)c(-c2ccnc(Nc3ccc(N4CCOCC4)c(F)c3)n2)o1.O=C(O)C(F)(F)F [Example 129] | – | 0.5 to 5 | 0.5 to 5 | – | 0.5 to 5 | – | +++ (at least one pIC50 measurement of greater than 7 against B-Raf) |
| CCNc1nc(-c2cc(C)cc(OC)c2)c(-c2ccnc(Nc3ccc(N4CCN(CCOC)CC4)c(C(=O)O)c3)n2)o1 [Example 130] | < 0.1 | – | – | 0.5 to 5 | – | 0.5 to 5 | – |
| CCNc1nc(-c2cc(C)cc(OC)c2)c(-c2ccnc(Nc3ccc(N4CCN5CCCCC5C4)c(F)c3)n2)o1 (stereo not shown) [Example 132] | < 0.1 | – | – | 0.5 to 5 | – | 0.5 to 5 | – |
| CCNc1nc(-c2cc(OC)cc(OC)c2)c(-c2ccnc(Nc3ccc(N4CCN5CCCCC5C4)c(F)c3)n2)o1 (stereo not shown) [Example 134] | < 0.1 | – | – | 0.5 to 5 | – | 0.5 to 5 | – |
